Test results from patent publication US20080221086A1, “Novel Inhibitors of Glutaminyl Cyclase” (PROBIODRUG AG, priority 2006, published 2008).

System: not given
Assay: not given
Conditions: not given

| melting point | SMILES |
| --- | --- |
| 205 °C | O=C1N/C(=N\C2CCCCC2)C(c2ccc(Br)cc2)N1c1ccc2nc[nH]c2c1 (centres unmarked) [Compound 199, 1-(1H-Benzoimidazol-5-yl)-5-(4-bromo-phenyl)-4-(cyclohexylimino)-imidazolidin-2-one] |

Biological target: hQC (Homo sapiens, UniProt Q16769)
Assay: Fluorometric assay of glutaminyl cyclase (QC) inhibition, H-Gln-βNA or H-Gln-AMC substrate
Format: biochemical
Conditions: compound from preparative synthesis, purified by chromatography; fluorescent assay; read-out: IC50 hQC
Summary of the method: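 Ki values were obtained by fitting progress curves to a competitive-inhibition equation, and the rapid screen used 4 mM inhibitor with substrate at 1 KM. Both readouts coupled pyroglutamyl aminopeptidase at pH 8.0 and 30° C: H-Gln-βNA at 0.2 mM (ex/em 320/410 nm) or H-Gln-AMC (380/460 nm).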

hQC, sequence (Q16769 29-361): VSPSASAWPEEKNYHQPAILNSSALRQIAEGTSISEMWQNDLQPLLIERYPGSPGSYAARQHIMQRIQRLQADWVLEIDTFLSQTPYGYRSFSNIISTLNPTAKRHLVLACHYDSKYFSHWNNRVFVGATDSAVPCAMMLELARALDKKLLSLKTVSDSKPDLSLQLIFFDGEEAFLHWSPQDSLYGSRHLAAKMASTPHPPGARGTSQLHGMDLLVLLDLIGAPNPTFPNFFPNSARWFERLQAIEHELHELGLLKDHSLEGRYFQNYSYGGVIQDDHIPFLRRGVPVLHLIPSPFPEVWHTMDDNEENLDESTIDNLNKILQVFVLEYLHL

| IC50 | SMILES |
| --- | --- |
| 23.5 nM | O=C1N/C(=N\C2CCCCC2)C(c2ccc(Br)cc2)N1c1ccc2nc[nH]c2c1 (centres unmarked) [Compound 199, 1-(1H-Benzoimidazol-5-yl)-5-(4-bromo-phenyl)-4-(cyclohexylimino)-imidazolidin-2-one] |
| 66.8 nM | O=C1N/C(=N/c2ccc3c(c2)OCCO3)C(c2ccc(Br)cc2)N1c1ccc2[nH]cnc2c1 (centres unmarked) [Compound 331, 1-(1H-Benzoimidazol-5-yl)-5-(4-bromo-phenyl)-4-[2,3-dihydro-benzo[1,4]dioxin-6-ylimino]-imidazolidin-2-one] |
| 28.2 nM | O=C1N/C(=N\[C@H]2CCc3ccccc32)C(c2ccc(Br)cc2)N1c1ccc2[nH]cnc2c1 (stereo partly drawn) [Compound 333, 1-(1H-Benzoimidazol-5-yl)-5-(4-bromo-phenyl)-4-((S)-indan-1-ylimino)-imidazolidin-2-one] |

Same assay, conditions: read-out: IC50

| IC50 | SMILES |
| --- | --- |
| 4 nM | O=C1N/C(=N\C2CCCCC2)C(c2ccc(Br)cc2)N1c1ccc2nc[nH]c2c1 (centres unmarked) [Compound 199, 1-(1H-Benzoimidazol-5-yl)-5-(4-bromo-phenyl)-4-(cyclohexylimino)-imidazolidin-2-one] |
| 9400 nM | OC1CCCCC1N=C1NC(=S)N(c2ccc3[nH]cnc3c2)C1c1ccc2nsnc2c1 (centres unmarked) [Compound 312, 1-(1H-Benzoimidazol-5-yl)-5-benzo[c][1,2,5]thiadiazol-5-yl-4-2-hydroxy-cyclohexylimino-imidazolidine-2-thione] |
| 3100 nM | Cc1ccc2occ(C3/C(=N/CCCc4ccccc4)NC(=S)N3c3ccc4[nH]cnc4c3)c(=O)c2c1 (centres unmarked) [Compound 313, 3-{3-(1H-Benzoimidazol-5-yl)-5-3-phenyl-propylimino-2-thioxo-imidazolidin-4-yl}-6-methyl-chromen-4-one] |
| 4 nM | O=C1N/C(=N/CCc2cccs2)C(c2cc3c(cc2Br)OCO3)N1c1ccc2nc[nH]c2c1 (centres unmarked) [Compound 314, 1-(3H-Benzoimidazol-5-yl)-5-(6-bromo-benzo1,3dioxol-5-yl)-4-2-thiophen-2-yl-ethylimino-imidazolidin-2-one] |
| 7600 nM | CC(CC1/C(=N/C2CCCCCC2)NC(=S)N1c1ccc2nc[nH]c2c1)CC(C)(C)C (centres unmarked) [Compound 315, 1-(3H-Benzoimidazol-5-yl)-4-cycloheptylimino-5-(2,4,4-trimethyl-pentyl)-imidazolidine-2-thione] |
| 7600 nM | CC1=CC(C)C(C2/C(=N/CC(=O)N3CCC(O)CC3)NC(=O)N2c2ccc3nc[nH]c3c2)CC1 (centres unmarked) [Compound 316, 1-(3H-Benzoimidazol-5-yl)-5-(2,4-dimethyl-cyclohex-3-enyl)-4-2-(4-hydroxy-piperidin-1-yl)-2-oxo-ethylimino-imidazolidin-2-one] |
| 9400 nM | CCc1ccccc1/N=C1\NC(=S)N(c2ccc3[nH]cnc3c2)C1c1ccccc1 (centres unmarked) [Compound 317, 1-(1H-Benzoimidazol-5-yl)-4-2-ethyl-phenylimino-5-phenyl-imidazolidine-2-thione] |
| 4 nM | O=C1N/C(=N\C2CCCC2)C(c2ccc(Cl)c(F)c2)N1c1ccc2[nH]cnc2c1 (centres unmarked) [Compound 318, 1-(1H-Benzoimidazol-5-yl)-5-(4-chloro-3-fluoro-phenyl)-4-cyclopentylimino-imidazolidin-2-one] |
| 5800 nM | COC(=O)C(C)/N=C1\NC(=S)N(c2ccc3[nH]cnc3c2)C1c1ccc(C)cc1 (centres unmarked) [Compound 320, Methyl 2-(1-(1H-benzo[d]imidazol-5-yl)-2-thioxo-5-p-tolylimidazolidin-4-ylideneamino)propanoate] |
| 4 nM | O=C1CCCN1CCC/N=C1/NC(=O)N(c2ccc3nc[nH]c3c2)C1c1ccc(Br)cc1 (centres unmarked) [Compound 321, 1-(3H-Benzoimidazol-5-yl)-5-(4-bromo-phenyl)-4-3-(2-oxo-pyrrolidin-1-yl)-propylimino-imidazolidin-2-one] |
| 1300 nM | CN(C)c1ccc(C2/C(=N\Cn3nnc4ccccc43)NC(=O)N2c2ccc3[nH]cnc3c2)cc1 (centres unmarked) [Compound 322, 1-(1H-Benzoimidazol-5-yl)-4-benzotriazol-1-ylmethylimino-5-(4-dimethylamino-phenyl)-imidazolidin-2-one] |
| 400 nM | O=C1CCCN1CCC/N=C1/NC(=O)N(c2ccc3[nH]cnc3c2)C1c1ccc(Cl)c(F)c1 (centres unmarked) [Compound 323, 1-(1H-Benzoimidazol-5-yl)-5-(4-chloro-3-fluoro-phenyl)-4-3-(2-oxo-pyrrolidin-1-yl)-propylimino-imidazolidin-2-one] |
| 3100 nM | Cc1cccc(C2/C(=N\Cn3nnc4ccccc43)NC(=O)N2c2ccc3[nH]cnc3c2)c1 (centres unmarked) [Compound 324, 1-(1H-Benzoimidazol-5-yl)-4-benzotriazol-1-ylmethylimino-5-m-tolyl-imidazolidin-2-one] |
| 6700 nM | O=C1N/C(=N/Cn2nnc3ccccc32)CN1c1ccc2[nH]cnc2c1 [Compound 325, 1-(1H-Benzoimidazol-5-yl)-4-benzotriazol-1-ylmethylimino-imidazolidin-2-one] |
| 4 nM | O=C1N/C(=N\C(Cc2ccccc2)c2ccccc2)C(c2cc3c(cc2Br)OCO3)N1c1ccc2[nH]cnc2c1 (centres unmarked) [Compound 326, 1-(1H-Benzoimidazol-5-yl)-5-(6-bromo-benzo1,3dioxol-5-yl)-4-1,2-diphenyl-ethylimino-imidazolidin-2-one] |
| 4 nM | O=C(CN=C1NC(=O)N(c2ccc3[nH]cnc3c2)C1c1cc2c(cc1Br)OCO2)N1CCCCC1 (centres unmarked) [Compound 327, 4-(2-Oxo-2-(piperidin-1-yl)ethylimino)-1-(1H-benzo[d]imidazol-5-yl)-5-(5-bromobenzo[d][1,3]dioxol-6-yl)imidazolidin-2-one] |
| 1300 nM | C/N=C1\NC(=O)N(c2ccc3[nH]cnc3c2)C1c1coc2ccc(C)cc2c1=O (centres unmarked) [Compound 328, 1-(1H-Benzoimidazol-5-yl)-4-methylimino-5-(6-methyl-4-oxo-4H-chromen-3-yl)-imidazolidin-2-one] |

| IC50 | SMILES |
| --- | --- |
| 6700 nM | Cc1ccc(C2/C(=N/C3CCCCC3O)NC(=O)N2c2ccc3nc[nH]c3c2)c(C)c1 (centres unmarked) [Compound 329, 1-(3H-Benzoimidazol-5-yl)-5-(2,4-dimethyl-phenyl)-4-2-hydroxy-cyclohexylimino-imidazolidin-2-one] |
| 9400 nM | CC1=CC(C)C(C2/C(=N/c3ccc4c(c3)OCCO4)NC(=S)N2c2ccc3[nH]cnc3c2)CC1 (centres unmarked) [Compound 330, 1-(1H-Benzoimidazol-5-yl)-4-2,3-dihydro-benzo1,4dioxin-6-ylimino-5-(2,4-dimethyl-cyclohex-3-enyl)-imidazolidine-2-thione] |
| 4 nM | O=C1N/C(=N/c2ccc3c(c2)OCCO3)C(c2ccc(Br)cc2)N1c1ccc2[nH]cnc2c1 (centres unmarked) [Compound 331, 1-(1H-Benzoimidazol-5-yl)-5-(4-bromo-phenyl)-4-[2,3-dihydro-benzo[1,4]dioxin-6-ylimino]-imidazolidin-2-one] |
| 9400 nM | Cc1ccc(C2/C(=N/C(C)(C)CC(C)(C)C)NC(=S)N2c2ccc3nc[nH]c3c2)c(C)c1 (centres unmarked) [Compound 332, 1-(3H-Benzoimidazol-5-yl)-5-(2,4-dimethyl-phenyl)-4-1,1,3,3-tetramethyl-butylimino-imidazolidine-2-thione] |
| 4 nM | O=C1N/C(=N\[C@H]2CCc3ccccc32)C(c2ccc(Br)cc2)N1c1ccc2[nH]cnc2c1 (stereo partly drawn) [Compound 333, 1-(1H-Benzoimidazol-5-yl)-5-(4-bromo-phenyl)-4-((S)-indan-1-ylimino)-imidazolidin-2-one] |
| 400 nM | O=C1N/C(=N\c2ccc3c(c2)OCCO3)C(c2cccc(Br)c2)N1c1ccc2nc[nH]c2c1 (centres unmarked) [Compound 334, 1-(3H-Benzoimidazol-5-yl)-5-(3-bromo-phenyl)-4-2,3-dihydro-benzo1,4dioxin-6-ylimino-imidazolidin-2-one] |
| 1300 nM | O=C1CCCN1CCC/N=C1/NC(=O)N(c2ccc3[nH]cnc3c2)C1c1cc(F)cc(F)c1 (centres unmarked) [Compound 335, 1-(1H-Benzoimidazol-5-yl)-5-(3,5-difluoro-phenyl)-4-3-(2-oxo-pyrrolidin-1-yl)-propylimino-imidazolidin-2-one] |
| 4 nM | O=C1N/C(=N\C2CCCc3ccccc32)C(c2cccc(Br)c2)N1c1ccc2[nH]cnc2c1 (centres unmarked) [Compound 336, 1-(1H-Benzoimidazol-5-yl)-5-(3-bromo-phenyl)-4-1,2,3,4-tetrahydro-naphthalen-1-ylimino-imidazolidin-2-one] |
| 1300 nM | O=C1N/C(=N\Cn2nnc3ccccc32)C(c2ccccc2F)N1c1ccc2[nH]cnc2c1 (centres unmarked) [Compound 337, 1-(1H-Benzoimidazol-5-yl)-4-benzotriazol-1-ylmethylimino-5-(2-fluoro-phenyl)-imidazolidin-2-one] |
| 4 nM | O=C1N/C(=N\C(Cc2ccccc2)c2ccccc2)C(c2cccc(Br)c2)N1c1ccc2[nH]cnc2c1 (centres unmarked) [Compound 338, 1-(1H-Benzoimidazol-5-yl)-5-(3-bromo-phenyl)-4-1,2-diphenyl-ethylimino-imidazolidin-2-one] |
| 400 nM | C/N=C1/NC(=O)N(c2ccc3[nH]cnc3c2)C1c1ccc(Cl)c(F)c1 (centres unmarked) [Compound 339, 1-(1H-Benzoimidazol-5-yl)-5-(4-chloro-3-fluoro-phenyl)-4-methylimino-imidazolidin-2-one] |
| 4000 nM | O=C(C/N=C1/NC(=O)N(c2ccc3[nH]cnc3c2)C1c1ccc(Cl)cc1)N1CCC(O)C1 (centres unmarked) [Compound 340, 1-(1H-Benzoimidazol-5-yl)-5-(4-chloro-phenyl)-4-2-(3-hydroxy-pyrrolidin-1-yl)-2-oxo-ethylimino-imidazolidin-2-one] |
| 1300 nM | O=C1N/C(=N/CCN2CCOCC2)C(c2cccc(Br)c2)N1c1ccc2nc[nH]c2c1 (centres unmarked) [Compound 341, 1-(3H-Benzoimidazol-5-yl)-5-(3-bromo-phenyl)-4-2-morpholin-4-yl-ethylimino-imidazolidin-2-one] |
| 400 nM | O=C(C/N=C1/NC(=O)N(c2ccc3[nH]cnc3c2)C1c1cccc(Br)c1)N1CCSCC1 (centres unmarked) [Compound 342, 1-(1H-Benzoimidazol-5-yl)-5-(3-bromo-phenyl)-4-2-oxo-2-thiomorpholin-4-yl-ethylimino-imidazolidin-2-one] |
| 6700 nM | O=C(C/N=C1\NC(=O)N(c2ccc3[nH]cnc3c2)C1c1ccnc2ccccc12)N1CCC(O)CC1 (centres unmarked) [Compound 343, 1-(1H-Benzoimidazol-5-yl)-4-2-(4-hydroxy-piperidin-1-yl)-2-oxo-ethylimino-5-quinolin-4-yl-imidazolidin-2-one] |
| 4900 nM | Cc1ccc(C2/C(=N/C3CCCCCC3)NC(=S)N2c2ccc3nc[nH]c3c2)c(C)c1 (centres unmarked) [Compound 344, 1-(3H-Benzoimidazol-5-yl)-4-cycloheptylimino-5-(2,4-dimethyl-phenyl)-imidazolidine-2-thione] |
| 4000 nM | O=C1N/C(=N/CCc2ccccn2)C(c2c[nH]c3cc(F)ccc23)N1c1ccc2[nH]cnc2c1 (centres unmarked) [Compound 345, 1-(1H-Benzoimidazol-5-yl)-5-(6-fluoro-1H-indol-3-yl)-4-2-pyridin-2-yl-ethylimino-imidazolidin-2-one] |
